Reference: patent publication US12509451B2, “Heteroaryl amide inhibitors of CD38” (NAPA THERAPEUTICS LTD., priority 2020, dated 2025)
One block for each molecule: values may come before it.

Columns and labels:
CD38 [1] = molecular target: T1, CD38 (Mus musculus, UniProt P56528); test: In vivo efficacy against CD38 in aged mice, single oral dose, liver NAD+ metabolites
T1 construct: aged mice (male C57BL6/J, 22 months old) were fasted for 4 hr; from tissue; host or cells: C57BL6/J mice (aged, DIO obese or LPS-challenged); liver, spleen, plasma
T1 sequence (P56528 1-304): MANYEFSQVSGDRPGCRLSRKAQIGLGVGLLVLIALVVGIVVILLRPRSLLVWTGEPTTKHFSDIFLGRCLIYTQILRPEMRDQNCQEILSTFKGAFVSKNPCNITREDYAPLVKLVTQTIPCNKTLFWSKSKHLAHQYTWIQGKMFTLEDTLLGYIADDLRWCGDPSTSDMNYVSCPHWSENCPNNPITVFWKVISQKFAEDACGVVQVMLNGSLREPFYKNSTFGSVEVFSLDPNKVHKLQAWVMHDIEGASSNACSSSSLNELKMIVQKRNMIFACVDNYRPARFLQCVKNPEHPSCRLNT
Method: The in vivo efficacy of Compound 35 against the human CD38 enzyme was tested in aged mice after oral administration and determined by mass spec analysis of NAD+ metabolites levels in liver tissue. The two main CD38 substrates, NAD+ and NMN, and the 2 main byproducts of the CD38 enzymatic reaction, NAM and ADPR, were measured.
Briefly, aged mice (male C57BL6/J, 22 months old) were fasted for 4 hr and compound 35 was administered via oral gavage at a concentration of 3 mg/kg and 10 mg/kg. Mice were humanely euthanized for liver tissue harvesting at 1-, 3-, and 6-hr post-dosing. A vehicle control (DMSO:Solutol: SBE-CD, 2:5:93, v/v) was included to assess baseline NAD+ metabolites levels.
The procedure for tissue sample preparation and UPLC-MS/MS methods were adapted from Trammell et al. (2013) Compu. Struct. Biotechnol. J. […] (https://www.ncbi.nlm.nih.gov/pmc/articles/PMC3962138/). Briefly, frozen liver tissue was pulverized and resuspended in the extraction buffer (3:1 ethanol:10 mM aq. HEPES, pH 7.1). The samples were vortexed, sonicated briefly in a bath sonicator, and shaken at 55° C. for 3 min at 1,200 rpm. Samples were then centrifuged at 16,000×g for 10 min at 4° C., and the supernatant was dried by speedvac. The dried pellet was resuspended in 97% 10 mM ammonium acetate/3% acetonitrile, centrifuged at 16,000×g for 10 min at 4° C. and 2 μL was injected for LCMS analysis.
The UPLC-MS/MS analysis to measure NAD+ metabolites was performed using a Vanquish UHPLC system and a Q Exactive Orbitrap mass spectrometer with H-ESI ion source both from Thermo Scientific. UPLC separation was performed on a Hypercarb (2.1×100 mm, 5 μm particle size, Thermo) column following the method described in Trammell et al. (2013). Acquisition was carried out in positive ion, Parallel Reaction Monitoring (PRM) mode and targeted […] (t-SIM). The Thermo Xcalibur QualBrowser system software (version 4.2.47) and Freestyle (version 1.8.51.0) softwares was used for the data processing. For relative fold change, peak areas were normalized with respective internal standards, normalized to weight of the tissue sample used, and calculated as fold change relative at 0 h timepoint/vehicle group.

CD38 [2] = molecular target: T1, CD38; test: LPS-induced inflammation in mice, cytokines quantification in plasma; format: in vivo
Method: The in vivo efficacy of Compound 39 against the human CD38 enzyme after LPS challenge was assessed. The effects of Compound 39 (10 mg/kg and 30 mg/kg) on inflammato cytokines, inflammation markers and NAD+ levels at 4 h and 8 h points after LPS-induced inflammation in 12 weeks old male C57BL/6J mice were evaluated.
Animals were euthanized by terminal cardiac blood puncture immediately after terminal CO2, 4 h and 8 h after LPS administration. At necropsy, the tissues (Liver, Plasma, Spleen, Kidney, Lungs, Heart, Visceral Adipose Tissue, Muscle-Gastrocnemius) were collected and quick frozen in liquid nitrogen. The blood was collected in a BD Microtainer® K2EDTA Additive Tube, centrifuge at 1000 g for 10 min at 4° C. and plasma was store at −80° C.).

CD38 [3] = molecular target: T1, CD38; test: LPS-induced inflammation in mice, gene expression analysis in spleen and liver; format: in vivo
[4] = 4 hour post LPS challenge, 10 mg/kg
[5] = 4 hour post LPS challenge, 30 mg/kg
[6] = 8 h post LPS challenge, 10 mg/kg and 30 mg/kg

ADPR levels in liver (CD38 [1]; single 3 mg/kg oral dose): decrease
NAD+ levels in liver (CD38 [1]; single 3 mg/kg oral dose): increase
NAM levels in liver (CD38 [1]; single 3 mg/kg oral dose): decrease
NMN levels in liver (CD38 [1]; single 3 mg/kg oral dose): increase
ADPR levels in liver (CD38 [1]; single 10 mg/kg oral dose): decrease
NAD+ levels in liver (CD38 [1]; single 10 mg/kg oral dose): increase
NAM levels in liver (CD38 [1]; single 10 mg/kg oral dose): decrease
NMN levels in liver (CD38 [1]; single 10 mg/kg oral dose): increase
SMILES: COc1cc(C(=O)Nc2ccnc(C(F)(F)F)c2)nc(-n2ccnc2)c1 [Compound 35, 6-(1H-imidazol-1-yl)-4-methoxy-N-(2-(trifluoromethyl)pyridin-4-yl)picolinamide]

decrease of plasma IL-6 (CD38 [2]; [4]): 43%
decrease of plasma TNFα (CD38 [2]; [4]): 22%
plasma IP-10 (CD38 [2]; 4 hour post LPS challenge, 10 mg/kg and 30 mg/kg): statistically significant decrease
decrease of plasma IL-6 (CD38 [2]; [5]): 75%
decrease of plasma TNFα (CD38 [2]; [5]): 58%
plasma IL-6 (CD38 [2]; [6]): statistically significant decrease
plasma IP-10 (CD38 [2]; [6]): statistically significant decrease
plasma TNFα (CD38 [2]; [6]): statistically significant decrease
CD38 expression in liver (CD38 [3]; liver, 10 mg/kg and 30 mg/kg, 8 hour post LPS challenge): statistically significant decrease
IFNγ expression levels in liver (CD38 [3]; liver, after LPS challenge): statistically significant decrease
IL-1β expression levels in liver (CD38 [3]; liver, after LPS challenge): statistically significant decrease
IL-6 expression levels in liver (CD38 [3]; liver, after LPS challenge): statistically significant decrease
IP-10 expression levels in liver (CD38 [3]; liver, after LPS challenge): statistically significant decrease
MCP1 expression levels in liver (CD38 [3]; liver, after LPS challenge): statistically significant decrease
MIP1α expression levels in liver (CD38 [3]; liver, after LPS challenge): statistically significant decrease
MIP2 expression levels in liver (CD38 [3]; liver, after LPS challenge): statistically significant decrease
RANTES expression levels in liver (CD38 [3]; liver, after LPS challenge): statistically significant decrease
TNFα expression levels in liver (CD38 [3]; liver, after LPS challenge): statistically significant decrease
CD38 expression in spleen (CD38 [3]; spleen, after LPS challenge): no significant changes
IFNγ expression levels in spleen (CD38 [3]; spleen, after LPS challenge): statistically significant decrease
IL-1β expression levels in spleen (CD38 [3]; spleen, after LPS challenge): statistically significant decrease
IL-6 expression levels in spleen (CD38 [3]; spleen, after LPS challenge): statistically significant decrease
IP-10 expression levels in spleen (CD38 [3]; spleen, after LPS challenge): statistically significant decrease
MCP1 expression levels in spleen (CD38 [3]; spleen, after LPS challenge): statistically significant decrease
MIP1α expression levels in spleen (CD38 [3]; spleen, after LPS challenge): statistically significant decrease
MIP2 expression levels in spleen (CD38 [3]; spleen, after LPS challenge): statistically significant decrease
RANTES expression levels in spleen (CD38 [3]; spleen, after LPS challenge): statistically significant decrease
TNFα expression levels in spleen (CD38 [3]; spleen, after LPS challenge): statistically significant decrease
SMILES: COCCOc1cc(C(=O)Nc2ccnc(C(F)(F)F)c2)nc(-n2ccnc2)n1 [Compound 39, 2-(1H-imidazol-1-yl)-6-(2-methoxyethoxy)-N-(2-(trifluoromethyl)pyridin-4-yl)pyrimidine-4-carboxamide]
